Tested on: open-chest canines
Test: Dobutamine infusion followed by vagal (sinus node fat pad) stimulation, hemodynamics in open-chest canines
Type: in vivo
Method: A study was done to assess the effects of dobutamine administration followed by vagal stimulation on sinus tachycardia. The study was done using 4 open-chest canines. Dobutamine was infused at a rate of 2.5-7.5 μg/kg/min to increase the cardiac contractility and the sinus rate at least 30 beats per minute. Vagal nerve stimulation was applied at the epicardial sinus node fat pad, located at the junction of the right pulmonary vein and the right atrium. Vagal stimulation was done with an electrical lead comprising a silicone plate with four platinum electrodes imbedded therein. Rectangular current pulses were delivered with intensity in the range of 1 to 5 mA, duration of pulse in the range of 0.1 ms to 1 ms, and frequency of repetition of the pulses between 20-30 Hz. To avoid tissue polarization, the polarity of consecutive pulses was alternated. Vagal nerve stimulation was administered to slow the sinus rate to the control level. Hemodynamic data was collected and compared in canines during control, during administration of dobutamine, and during both dobutamine and vagal stimulation.

[1] = dobutamine + vagal stimulation at sinus node fat pad
[2] = dobutamine infused 2.5-7.5 μg/kg/min, no vagal stimulation

SMILES: CC(CCc1ccc(O)cc1)NCCc1ccc(O)c(O)c1 (stereo not drawn) [Dobutamine, dobutamine]
- RR interval (dobutamine 2.5-7.5 μg/kg/min + vagal stimulation at sinus node fat pad (1-5 mA, 0.1-1 ms, 20-30 Hz)): 560 ± 16 ms
- +dp/dt [1]: 2980 ± 602 mmHg/s
- CO [1]: 3.6 ± 0.8 L/min
- DBP [1]: 74 ± 7 mmHg
- LVEDP [1]: 7.6 ± 1.5 mmHg
- LVSP [1]: 120 ± 16 mmHg
- SBP [1]: 126 ± 12 mmHg
- −dp/dt [1]: −1897 ± −313 mmHg/s
- heart rate, systolic blood pressure (SBP), diastolic blood pressure (DBP), left ventricular systolic pressure (LVSP) (and its ±dp/dt), and cardiac output (CO) (dobutamine administration vs. control, open-chest canines): significantly increased
- RR interval (dobutamine infused 2.5-7.5 μg/kg/min, 4 open-chest canines, no vagal stimulation): 421 ± 36 ms
- +dp/dt [2]: 3607 ± 861 mmHg/s
- CO [2]: 4.2 ± 0.9 L/min
- DBP [2]: 84 ± 7 mmHg
- LVEDP [2]: 6.9 ± 2.2 mmHg
- LVSP [2]: 130 ± 13 mmHg
- SBP [2]: 135 ± 18 mmHg
- −dp/dt [2]: −2259 ± −495 mmHg/s
- sinus rate increase (vagal stimulation combined with dobutamine, all other hemodynamic benefits preserved): eliminated sinus rate increase
